{"source": "patent US6586191B2", "about": "(priority 1996, dated 2003)", "key": {"[1]": {"target": "T1, rat GALR1 receptor (Rattus norvegicus, UniProt Q62805)", "T1 sequence (Q62805 1-346)": "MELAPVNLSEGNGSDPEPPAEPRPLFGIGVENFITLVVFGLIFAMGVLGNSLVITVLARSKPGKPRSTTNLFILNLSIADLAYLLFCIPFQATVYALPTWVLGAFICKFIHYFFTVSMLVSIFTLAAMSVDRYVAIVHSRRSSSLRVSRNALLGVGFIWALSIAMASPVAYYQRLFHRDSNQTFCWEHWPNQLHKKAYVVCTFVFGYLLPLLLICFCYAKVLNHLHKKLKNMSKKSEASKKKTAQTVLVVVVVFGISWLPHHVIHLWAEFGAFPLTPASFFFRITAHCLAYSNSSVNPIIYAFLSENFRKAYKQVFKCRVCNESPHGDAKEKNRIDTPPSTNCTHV", "assay": "biochemical"}, "[2]": {"target": "T1, rat GALR1 receptor", "format": "cell-based", "set-up": "expressed in transfected cells; host or cells: COS-7 (transient)", "conditions": "for fold less potent than porcine galanin in the rat GalR1 cAMP assay: LM(tk-) rat GALR1"}, "[3]": {"target": "T2, rat GALR2 receptor (Rattus norvegicus, UniProt O08726)", "T2 sequence (O08726 1-372)": "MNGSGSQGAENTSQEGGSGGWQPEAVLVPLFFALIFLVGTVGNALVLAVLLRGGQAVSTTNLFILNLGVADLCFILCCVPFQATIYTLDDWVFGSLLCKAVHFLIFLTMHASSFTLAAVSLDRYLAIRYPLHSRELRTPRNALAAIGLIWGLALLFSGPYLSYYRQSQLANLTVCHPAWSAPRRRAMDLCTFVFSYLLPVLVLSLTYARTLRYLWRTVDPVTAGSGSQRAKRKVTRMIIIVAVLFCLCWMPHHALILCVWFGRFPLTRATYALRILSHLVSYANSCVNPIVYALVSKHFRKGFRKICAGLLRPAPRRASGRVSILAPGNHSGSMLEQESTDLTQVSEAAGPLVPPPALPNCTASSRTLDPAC", "assay": "arachidonic acid release in CHO cells stably transfected with rat GALR2 (C-rGalR2-79)", "format": "cell-based", "set-up": "expressed in transfected cells", "method": "The labeled cells were washed three times with 200 ul HAM's F-12. The wells were then filled with medium (200 uL) and the assay was initiated with the addition of peptides or buffer (22 uL). Cells were incubated for 30 min at 37° C., 5% CO2. Supernatants were transferred to a microtiter plate and evaporated to dryness at 75° C. in a vacuum oven. Samples were then dissolved and resuspended in 25 uL distilled water. Scintillant (300 uL) was added to each well and samples were counted for ^3H in a Trilux plate reader. Data were analyzed using nonlinear regression and statistical techniques available in the GraphPAD Prism package (San Diego, Calif.)."}, "[4]": {"system": "[125I]galanin binding sites in rat brain", "assay": "galanin receptor autoradiography, displacement of [125I]galanin from rat brain tissue sections", "conditions": "5 μM", "method": "Male Sprague-Dawley rats (Charles River, Wilmington, Mass.) were euthanized using CO2, decapitated, and their brains immediately removed and frozen on dry ice. Tissue sections were cut at 20 μm using a cryostat and thaw mounted onto gelatin coated slides. Tissues were preincubated in two 10 minute changes of 50 mM Tris-HCl buffer pH 7.4, containing 5 mM MgSO4 and 2 mM EGTA (Sigma). […] After incubation, tissues were dipped twice in ice-cold Tris-HCl buffer (40° C.), followed by a 5 minute wash in ice-cold Tris-HCl buffer (4° C.), then dipped twice in ice-cold deionized water to remove the salts. Sections were placed in X-ray cassettes and apposed to Dupont Cronex MRF 34 Film for 5 days. Films were developed using a Kodak M35A Processor."}, "[5]": {"target": "T2, rat GALR2 receptor", "assay": "voltage clamp currents in Xenopus oocytes injected with rGalR2 mRNA", "format": "cell-based", "set-up": "expressed in transfected cells", "conditions": "100-1000 nM, oocytes injected with 5-50 pg rGalR2 mRNA, holding potential -80 mV"}, "[6]": {"target": "T2, rat GALR2 receptor", "assay": "GTPgamma35S binding to membranes of cells transfected with rat GalR2", "format": "biochemical", "set-up": "expressed in transfected cells", "conditions": "1 μM peptide, n=3", "experimental": "Membranes from cells transfected with the rat GalR2 receptor were suspended in assay buffer (50 mM Tris, 100 mM NaCl, 5 mM MgCl2, pH 7.4) supplemented with 0.1% BSA, 0.1% bacitracin and 10 μM GDP. Membranes were incubated on ice for 20 minutes, transferred to a 96-well Millipore microtiter GF/C filter plate and mixed with GTPγ^35S (250,000 cpm/sample, specific activity ˜1000 Ci/mmol) plus or minus GTPγS (final concentration=100 μM). Final membrane protein concentration=90 μg/mL. […] Samples collected in the filter plate were treated with scintillant and counted for ^35S in a Trilux (Wallac) liquid scintillation counter.\nThe signal transduction pathway outlined for rat GalR2 allows for the development of functional assays other than inositol phosphate, calcium, and arachidonic acid determination. One such assay relies on the fact that binding of GTP to a G-protein precedes agonist-dependent activation of phospholipase C. we examined whether galanin-dependent activation of GALR2 could be monitored by the binding of GTPγ^35S to membranes from stably transfected cells."}, "[7]": {"target": "T2, rat GALR2 receptor", "assay": "intracellular calcium mobilization (Fura-2) in cells transfected with rat GALR2", "format": "cell-based", "set-up": "expressed in transfected cells", "experimental": "The intracellular free calcium concentration may be measured by microspectroflourometry using the fluorescent indicator dye Fura-2/AM (Bush et al. 1991). Stably transfected cells are seeded onto a 35 mm culture dish containing a glass coverslip insert. Cells are washed with HBS and loaded with 100 μL of Fura-2/AM (10 μM) for 20 to 40 min. After washing with HBS to remove the Fura-2/AM solution, cells are equilibrated in HBS for 10 to 20 min. Cells are then visualized under the 40× objective of a Leitz Fluovert FS microscope and fluorescence emission is determined at 510 nm with excitation wavelengths alternating between […]. Raw fluorescence data are converted to calcium concentrations using standard calcium concentration curves and software analysis techniques."}, "[8]": {"system": "galanin binding sites in brain, spinal cord, pancreatic islets and cell lines, gastrointestinal smooth muscle", "conditions": "read-out: affinity of high-affinity galanin binding sites; several mammalian species and tissues; cited from earlier work"}, "[9]": {"target": "T3, human GALR2 receptor (Homo sapiens, UniProt O43603)", "T3 construct": "To obtain a full-length hGALR2 clone, superpools of a human heart cDNA library were screened by PCR; expressed in transfected cells", "T3 sequence (O43603 1-387)": "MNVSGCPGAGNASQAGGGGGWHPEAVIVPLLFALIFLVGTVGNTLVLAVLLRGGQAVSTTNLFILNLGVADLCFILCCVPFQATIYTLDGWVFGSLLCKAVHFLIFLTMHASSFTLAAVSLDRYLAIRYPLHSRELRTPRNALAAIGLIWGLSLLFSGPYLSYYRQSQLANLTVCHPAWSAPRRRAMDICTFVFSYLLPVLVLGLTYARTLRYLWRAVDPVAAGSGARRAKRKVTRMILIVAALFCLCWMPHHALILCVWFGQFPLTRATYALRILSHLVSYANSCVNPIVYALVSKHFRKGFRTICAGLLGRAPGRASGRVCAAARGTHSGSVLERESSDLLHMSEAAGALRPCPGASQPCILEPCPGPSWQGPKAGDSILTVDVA", "assay": "MAP kinase phosphorylation (western blot) in CHO cells expressing human GALR2", "format": "cell-based", "conditions": "CHO human GALR2, 10 minutes, human galanin (10 μM)", "experimental": "(§1) CHO cells expressing either the rat GALR2 receptor or the human GALR2 receptor were plated at ˜50% confluence into well-plates and grown in culture with fetal bovine serum reduced to 0.5% for 2 days. Fresh medium was exchanged for old and then aspirated after 2 hrs. […] Cells were washed with phosphate buffered saline and lysed in 100 uL Laemmli sample buffer (Bio-Rad) containing 5% β-mercaptoethanol. Cell lysate was scraped off the plate, transferred to a microfuge tube on ice, and sonicated for 10-15 seconds. Samples were heated at 100° C. for 3-5 minutes. Insoluble material was collected by centrifugation at 10,000×g for 5 min. Supernatant (20 μL/lane) was loaded onto a 4-20% polyacrylamide Bio-Rad Ready-Gel (10×10 cm) together with a phospho-MAP kinase protein standard (New England BioLabs) and molecular weight markers. […] The phospho-MAP kinase complex was detected by chemiluminescence using Lumiglow reagent (New England BioLabs) and Kodak X-Omat film, with exposure times ranging from 10 to 120 seconds.\n(§2) Another functional assay relies on the fact that MAP kinase phosphorylation precedes the activation of phospholipase A2. We tested whether galanin-dependent activation of GALR2 could be monitored by changes in MAP kinase phosphorylation. […]"}, "[10]": {"target": "T2, rat GALR2 receptor", "assay": "MAP kinase phosphorylation (western blot) in CHO cells expressing rat GALR2", "format": "cell-based", "set-up": "expressed in transfected cells", "conditions": "CHO rat GALR2, 10 minutes, human galanin (10 μM)", "experimental": "as §1, §2"}}, "note": "Peptide text beside a SMILES is read from it."}
{"molecule": "CC(C)C[C@H](NC(=O)[C@H](CC(C)C)NC(=O)[C@@H](Cc1c[nH]c2ccccc12)NC(=O)[C@H](Cc1ccccc1)NC(=O)[C@@H](Cc1c[nH]c2ccccc12)NC(=O)[C@H](CCC(N)=O)NC(=O)[C@H](CCC(N)=O)NC(=O)[C@@H]1CCCN1C(=O)[C@H](CCCCN)NC(=O)[C@@H]1CCCN1C(=O)[C@@H](CCCNC(=N)N)NC(=O)[C@@H]1CCCN1C(=O)CNC(=O)[C@H](CC(C)C)NC(=O)[C@H](CC(C)C)NC(=O)[C@H](Cc1ccc(O)cc1)NC(=O)CNC(=O)[C@H](C)NC(=O)[C@H](CO)NC(=O)[C@H](CC(N)=O)NC(=O)[C@H](CC(C)C)NC(=O)[C@@H](NC(=O)[C@H](Cc1c[nH]c2ccccc12)NC(=O)CN)[C@@H](C)O)C(N)=O", "note": "[Peptide C7, C7] (HELM PEPTIDE1{G.W.T.L.N.S.A.G.Y.L.L.G.P.[dR].P.K.P.Q.Q.[dW].F.[dW].L.L.[am]}$$$$V2.0; N-terminus and C-terminus assumed)", "values": [{"measurement": "Ki", "setting": "[1]", "value": 16.2, "unit": "nM"}, {"measurement": "EC50", "setting": "[2]; read-out: LM(tk-) Rat GALR1 cAMP assay EC50", "value": 0.52, "unit": "nM"}]}
{"molecule": "CC[C@H](C)[C@H](NC(=O)[C@H](C)NC(=O)[C@H](Cc1c[nH]cn1)NC(=O)[C@@H]1CCCN1C(=O)CNC(=O)[C@H](CC(C)C)NC(=O)[C@H](CC(C)C)NC(=O)[C@H](Cc1ccc(O)cc1)NC(=O)CNC(=O)[C@H](C)NC(=O)[C@H](CO)NC(=O)[C@H](CC(N)=O)NC(=O)[C@H](CC(C)C)NC(=O)[C@@H](NC(=O)[C@H](Cc1c[nH]c2ccccc12)NC(=O)CNC(=O)[C@H](CCCNC(=N)N)NC(=O)[C@H](CCCCN)NC(=O)[C@H](CCC(=O)O)NC(=O)[C@H](CCCCN)NC(=O)[C@@H](NC(=O)[C@@H]1CCCN1C(=O)[C@@H](N)CO)C(C)C)[C@@H](C)O)C(=O)N[C@@H](CC(=O)O)C(=O)N[C@@H](CC(N)=O)C(=O)N[C@@H](Cc1c[nH]cn1)C(=O)N[C@@H](CCCNC(=N)N)C(=O)N[C@@H](CO)C(=O)N[C@@H](Cc1ccccc1)C(=O)N[C@@H](Cc1c[nH]cn1)C(=O)N[C@@H](CC(=O)O)C(=O)N[C@@H](CCCCN)C(=O)N[C@@H](Cc1ccc(O)cc1)C(=O)NCC(=O)N[C@@H](CC(C)C)C(=O)N[C@@H](C)C(N)=O", "note": "[porcine galanin (−7) to (+29)]", "values": [{"measurement": "fold less potent than porcine galanin in the rat GalR2 arachidonic acid assay", "setting": "[3]", "value": 3, "unit": "fold"}, {"measurement": "fold less potent than porcine galanin in the rat GalR1 cAMP assay", "setting": "[2]", "value": 350, "unit": "fold"}]}
{"molecule": "porcine galanin (1-29)", "values": [{"measurement": "displacement of [125I]galanin binding from rat brain tissue sections", "setting": "[4]", "value": "complete displacement"}, {"measurement": "activation of rapid inward currents (oocytes responding)", "setting": "[5]", "value": "36 of 46"}, {"measurement": "binding of GTPγ35S in presence of peptide", "setting": "[6]; C-rGALR2-79 membranes, without peptide 8,014±113 cpm", "value": "10,292±104 cpm"}, {"measurement": "binding of GTPγ35S in presence of peptide", "setting": "[6]; L-rGalR2I-4 membranes (intronless), without peptide 27,545±504 cpm", "value": "29,011±526 cpm"}, {"measurement": "effect on intracellular calcium levels", "setting": "[7]; COS-7 cells transfected with rat GALR2 cDNA", "value": "no effect"}]}
{"molecule": "rat galanin", "values": [{"measurement": "increase of intracellular free [Ca+2] (Δ[Ca+2])", "setting": "[7]; 1 μM peptide, C-rGALR2-79, n=9, not in untransfected cells", "value": "310 ± 70", "unit": "nM"}]}
{"molecule": "[^125I]porcine galanin", "values": [{"measurement": "Kd", "setting": "[8]", "value": "0.5 to 1", "unit": "nM"}]}
{"molecule": "Human galanin", "values": [{"measurement": "phosphorylated MAP kinase levels", "setting": "[9]", "value": "increase"}, {"measurement": "phosphorylated MAP kinase levels", "setting": "[10]", "value": "increase"}]}
{"molecule": "CC[C@H](C)[C@H](NC(=O)[C@H](C)NC(=O)[C@H](Cc1c[nH]cn1)NC(=O)[C@@H]1CCCN1C(=O)CNC(=O)[C@H](CC(C)C)NC(=O)[C@H](CC(C)C)NC(=O)[C@H](Cc1ccc(O)cc1)NC(=O)CNC(=O)[C@H](C)NC(=O)[C@H](CO)NC(=O)[C@H](CC(N)=O)NC(=O)[C@H](CC(C)C)NC(=O)[C@@H](NC(=O)[C@H](Cc1c[nH]c2ccccc12)NC(=O)CNC(=O)[C@H](CCCNC(=N)N)NC(=O)[C@H](CCCCN)NC(=O)[C@H](CCC(=O)O)NC(=O)[C@H](CCCCN)NC(=O)[C@@H](NC(=O)[C@@H]1CCCN1C(=O)[C@H](CO)NC(=O)CNC(=O)[C@@H](N)CC(C)C)C(C)C)[C@@H](C)O)C(=O)N[C@@H](CC(=O)O)C(=O)N[C@@H](CC(N)=O)C(=O)N[C@@H](Cc1c[nH]cn1)C(=O)N[C@@H](CCCNC(=N)N)C(=O)N[C@@H](CO)C(=O)N[C@@H](Cc1ccccc1)C(=O)N[C@@H](Cc1c[nH]cn1)C(=O)N[C@@H](CC(=O)O)C(=O)N[C@@H](CCCCN)C(=O)N[C@@H](Cc1ccc(O)cc1)C(=O)NCC(=O)N[C@@H](CC(C)C)C(=O)N[C@@H](C)C(N)=O", "note": "[porcine galanin (−9) to (+29)]", "values": [{"measurement": "fold less potent than porcine galanin in the rat GalR2 arachidonic acid assay", "setting": "[3]", "value": 2, "unit": "fold"}, {"measurement": "fold less potent than porcine galanin in the rat GalR1 cAMP assay", "setting": "[2]", "value": 400, "unit": "fold"}]}
